Laboratory results published in US5061721A (G. D. Searle & Co., priority 1990, dated 1991).

Legend:
Male Long-Evans rats = assay: Passive avoidance assay; assay type: in vivo, rat; conditions: for Latency in Seconds in Passive Avoidance: saline 11.9; for Latency to enter box 24 hours after shock: n = 6
From the text: Subjects: Male Long-Evans rats weighing about 200 g (Sasco) were used. They were housed two per cage with ad lib food and water for the duration of the experiment.
Apparatus: The apparatus consisted of a plexiglass box (32×26×20 cm) with a lid with a floor of metal rods spaced 1.8 cm apart. The box was divided into two chambers, one painted black and the other gray. Two doors (12 cm high) were cut into the front of the box allowing access into each chamber.
A Y-shaped plexiglas runway was attached to the front of the box. The stem of the Y was 16 cm long and unpainted. The arms of the Y (14 cm long each) led to the two doors and each was painted the color of the chamber to which it led. The stem of the Y extended over the edge of the table on which the apparatus was placed, so that it was approximately 75 cm above the floor. The metal floor of the box was wired to a Lafayette shock generator so that a 0.5 mAmp shock could be delivered.
Procedure: On the first rest day, each rat was placed on the runway and allowed to enter one of the chambers. The door to this chamber was then closed, and the rat was then allowed to enter the other chamber. […] Sixty minutes later, each rat was again allowed to enter one chamber, where it received a footshock for 2 seconds. […] On the third test day, the rat is again placed on the runway and allowed to enter a chamber. On days two and three, each rat's latency to enter a chamber, and which chamber it entered, are recorded.

[1] = molecular target: T1, NMDA receptor-associated glycine recognition site (Glycine B receptor) (Rattus norvegicus, UniProt P35439); assay: TCP modulation assay (stimulation of [3H]TCP binding); assay type: biochemical; conditions: in the presence of 0.6 μM glycine; basal binding 2583 ±381 DPM
T1 construct: synaptic plasma membranes (SPM) prepared from rat forebrain; tissue Sasco, St. Charles, Mo; (animals); host or cells: forebrain synaptic plasma membranes of 30-45 day old male Sprague-Dawley rats, Triton X-100 washed
Method: (§1) [^3 H]TCP binding was performed using Triton X-100 washed synaptic plasma membranes (SPM) prepared from rat forebrain (30-45 day old, male Sprague-Dawley; Sasco, St. Charles, Mo.) as described previously [J. W. Thomas, W. F. Hood, J. B. Monahan, P. C. Contreras and T. L. O'Donohue, Brain Res., 442, 396-398 (1988)]. […] The samples were then filtered though glass fiber filters (Schleicher and Schuell #32) which were pretreated with 0.05% (v/v) polyethylenimine. The filters were washed and the radioactivity quantitated by liquid scintillation spectrometry. […] The EC50 values for the stimulation of [^3 H]TCP binding were determined using a four parameter logistic regression analysis.

Rats = assay: Rewarded alternation of rats in a T-maze; assay type: in vivo, rat; conditions: 3 mg/kg i.p.
From the text: Both groups learned the task in about 20 trials. Learning is defined as making 9 correct out of 10 consecutive choices. On the following day, the food reward was placed in the other arm of the maze (reversal).

[2] = glycine prodrug; cited from earlier work
[3] = molecular target: PCP site of the NMDA-PCP receptor complex; assay: [3H]TCP binding to synaptic plasma membranes under basal conditions; design: species or system rat
Method: as §1

## C[C@@H](N)C(=O)O [D-alanine]
Male Long-Evans rats; 534 mg/kg I.G.
  Latency in Seconds in Passive Avoidance: 10.9 s

## NCC(=O)O [Glycine]
[1]
  Maximum specific [3H]TCP binding: 4712±779 DPM

## N[C@@H]1CONC1=O [D-cycloserine, 4-amino-3-isoxazolidone]
Rats; following day, saline about 32 trials
  Trials to learn the reversal: about 20 trials
Rats; initial task
  Trials to learn place learning task (9 correct out of 10 consecutive choices): about 20 trials
Male Long-Evans rats; 0.3 mg/kg i.p., post-shock
  % of Saline Control Latency in Passive Avoidance: 160%
Male Long-Evans rats; 0.3 mg/kg i.p., pre-retrieval
  % of Saline Control Latency in Passive Avoidance: 105%
Male Long-Evans rats; 0.3 mg/kg i.p., pre-shock
  % of Saline Control Latency in Passive Avoidance: 152%
Male Long-Evans rats; 3 mg/kg i.p., post-shock
  % of Saline Control Latency in Passive Avoidance: 215%
Male Long-Evans rats; 3 mg/kg i.p., pre-retrieval
  % of Saline Control Latency in Passive Avoidance: 153%
Male Long-Evans rats; 3 mg/kg i.p., pre-shock
  % of Saline Control Latency in Passive Avoidance: 245%
Male Long-Evans rats; 10 mg/kg i.p., drug after shock
  Latency to enter box 24 hours after shock: 22.8 ± 2.4 s
Male Long-Evans rats; 10 mg/kg i.p., drug before shock
  Latency to enter box 24 hours after shock: 16.6 ± 3.0 s
Male Long-Evans rats; 10 mg/kg i.p., post-shock
  % of Saline Control Latency in Passive Avoidance: 153%
Male Long-Evans rats; 10 mg/kg i.p., pre-retrieval
  % of Saline Control Latency in Passive Avoidance: 180%
Male Long-Evans rats; 10 mg/kg i.p., pre-shock
  % of Saline Control Latency in Passive Avoidance: 138%
Male Long-Evans rats; 20 mg/kg i.p., pre-retrieval
  % of Saline Control Latency in Passive Avoidance: 100%
Male Long-Evans rats; 60 mg/kg I.G.
  Latency in Seconds in Passive Avoidance: 17.3 s

## CCCCCNCC(N)=O [milacemide]
[2]
  Increase of whole brain content of glycine: 30%

## c1csc(C2(N3CCCCC3)CCCCC2)c1 [[^3 H]TCP]
[3]
  Kd: 44 nM
